# Measured values reported in publication PMC5245739, “Nanoscale Electric Characteristics and Oriented Assembly of Halobacterium salinarum Membrane Revealed by Electric Force Microscopy” (Nanomaterials, 2016).
# pKd: −log10 of the molar value. No end group written: not given here.
# Legend:
# [1] = molecular target: T1, purple membrane (PM) (Halobacterium salinarum, UniProt P02945); test: Directional PM assembly on Peptide-3 modified silicon, AFM and surface potential; settings: side attributed from surface potential; PM adsorbed on peptide modified silicon (EDC/NHS)
# T1 construct: endogenous in cells; host or cells: Halobacterium halobium culture; purple membrane isolated by the standard procedure (Oesterhelt & Stoeckenius)
# T1 sequence (P02945 14-261 limits assumed): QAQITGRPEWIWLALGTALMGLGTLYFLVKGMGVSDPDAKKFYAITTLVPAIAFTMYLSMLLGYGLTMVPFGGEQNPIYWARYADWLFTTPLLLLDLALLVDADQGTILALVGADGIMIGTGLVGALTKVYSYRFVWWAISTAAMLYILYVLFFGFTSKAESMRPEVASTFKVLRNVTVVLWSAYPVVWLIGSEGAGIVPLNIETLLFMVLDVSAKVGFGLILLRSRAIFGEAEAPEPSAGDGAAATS
# Protocol: The peptide was modified on silicon substrates via 1-ethyl-3-(3-(dimethylamino)propyl) carbodiimide (EDC)/N-hydroxysuccinimide(NHS) coupling for an oriented PM assembly. The silicon surface is treated with oxygen plasma first for hydroxyl group generation and then followed by (3-aminopropyl)triethoxysilane (APTES) modification for an amino-terminated surface. Then, introduction of succine anhydride leads to a carboxyl-terminated self-assembled monolayer (SAM) on the silicon surface, followed by EDC/NHS activation to immobilized peptides onto the silicon surface. […] This observation is consistent with the SPR measurements on the binding affinity of peptide with PM. The surface potential analyses of PM patches on silicon substrate are labeled by lines in EFM-potential images and their sectional analyses were done. […]
# The topographic and surface potential images were obtained using a Bruker Dimension Icon microscope in a two-pass operation mode slightly different from the EFM measurement mentioned above. […] The deflection amplitude of the probe in lift mode was monitored, which was linearly proportional to the electrical force imposed on the probe. […]
# [2] = molecular target: T1, purple membrane (PM); test: SPR binding of peptide to PM (KxV5-type SPR, Langmuir adsorption model); settings: PM patches as mobile phase
# Protocol: Binding affinity of peptide with PM was tested by using surface plasmon resonance (SPR), which can provide real-time monitoring of biomolecular interactions [46, 47]. The binding constant between PM and the peptide was calculated based on Langmuir adsorption, in which the following equation is applicable. (4) 1/R=1/(RmaxKACA)+1/Rmax Rmax is the maximum coverage, KA is the equilibrium adsorption constant, and CA is the concentration of adsorbate solution [48].
# The culture of Halobacterium halobium and PM isolation were carried out following a standard procedure [49]. Purified PM was suspended in double-distilled water and stored at 4 °C. The buffer used in the experiments consisted of 10 mM Tris HCl with a pH value of 8.0.
# The characterization of the peptides-PM binding interaction was accomplished with the surface plasmon resonance technique (KxV5-type SPR, Plexera, Woodinville, WA, USA). […] The peptides were introduced to the surface of the gold chip in advance as stationary phase. SPR chip was modified by thiol molecules containing carboxyl to form self-assembled layer. 5 mL of carboxyl thiols (dithiosole-COOH, 1 μM) and hydroxy-dithiol molecule (dithiosole-OH, 10 μM) mixing ethanol solution was dropped on a SPR chip surface, and then the remaining liquid was removed by suction after 15 min of adsorption. After rinsing with ethanol, the carboxyl-terminated SAM on the chip surface underwent EDC/NHS activation. PM patches were introduced as a mobile phase. Based on the Langmuir adsorption model, the kinetic parameters and the binding constant were calculated using Plexera software.
sequence,measurement,setting,value
GARGIMIGTGLVGALTDVYSYDF,orientation of PM on peptide-modified silicon,[1],identical orientation of the PM on surface
same,kon,"[2]; peptide immobilised on gold chip (carboxyl-terminated SAM, EDC/NHS), Plexera software, buffer used in the experiments 10 mM Tris HCl pH 8.0, read-out: adsorption rate constant ka",283 M⁻¹ s⁻¹
same,koff,"[2]; peptide immobilised on gold chip (carboxyl-terminated SAM, EDC/NHS), Plexera software, buffer used in the experiments 10 mM Tris HCl pH 8.0, read-out: dissociation rate constant kd",0.00238 s⁻¹
same,pKd,"[2]; peptide immobilised on gold chip, buffer used in the experiments 10 mM Tris HCl pH 8.0, unit inferred, read-out: equilibrium dissociation constant KD",5.07
